From US9371294B2, “Cycloalkenyl aryl derivatives for CETP inhibitor” (CHONG KUN DANG PHARMACEUTICAL CORP., priority 2011, dated 2016)

Each compound was assayed against T1, cholesteryl ester transfer protein (Homo sapiens, UniProt P11597) (assay: In vitro test for the ability to inhibit cholesteryl ester transfer). Settings: [3H]-cholesteryl oleate transfer from rHDL-agarose to LDL; human plasma as CETP source; 37° C.; 16-10000 nM, duplicate.
T1 construct: As a source of cholesteryl ester transfer protein, plasma from healthy humans was used; from tissue; host or cells: plasma from healthy humans
T1 sequence (P11597 18-493): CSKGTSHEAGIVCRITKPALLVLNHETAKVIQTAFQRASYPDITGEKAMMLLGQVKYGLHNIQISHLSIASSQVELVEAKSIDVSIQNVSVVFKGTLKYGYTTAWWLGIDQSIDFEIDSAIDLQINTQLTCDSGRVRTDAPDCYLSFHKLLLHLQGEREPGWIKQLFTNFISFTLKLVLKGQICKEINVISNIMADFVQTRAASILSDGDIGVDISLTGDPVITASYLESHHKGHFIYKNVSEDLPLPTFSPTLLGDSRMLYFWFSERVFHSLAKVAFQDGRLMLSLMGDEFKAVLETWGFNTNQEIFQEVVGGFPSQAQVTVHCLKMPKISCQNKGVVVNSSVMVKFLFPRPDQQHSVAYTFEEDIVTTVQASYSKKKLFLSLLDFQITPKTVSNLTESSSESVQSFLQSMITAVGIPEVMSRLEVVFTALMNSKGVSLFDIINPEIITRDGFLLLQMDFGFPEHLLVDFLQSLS
Type: biochemical
How it was run: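 Human plasma served as the CETP source, with human LDL (0.25 mg/ml) as acceptor and agarose-immobilised recombinant HDL carrying [3H]-cholesteryl oleate (0.25 mg/ml) as donor, at 37 °C. Compounds were run in duplicate at 16–10000 nM. Transferred radioactivity in the supernatant was counted by beta detection, and IC50 was fitted from the fraction of label transferred to LDL.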

IC50	SMILES
200 nM	COc1cc(F)c(C(C)C)cc1C1=C(CN2C(=O)O[C@H](c3cc(C(F)(F)F)cc(C(F)(F)F)c3)[C@@H]2C)CC(C)CC1 (stereo partly drawn) [Compound 25]
1090 nM	COC(=O)c1ccc(OC)c(C2=C(CN3C(=O)O[C@H](c4cc(C(F)(F)F)cc(C(F)(F)F)c4)[C@@H]3C)CCCC2)c1 [Compound 36, methyl 3-(2-(((4S,5R)-5-(3,5-bis(trifluoromethyl)phenyl)-4-methyl-2-oxooxazolidin-3-yl)methyl)cyclohex-1-enyl)-4-methoxybenzoate]
7 nM	COC(=O)CC(C)(C)c1ccc(OC)c(C2=C(CN3C(=O)O[C@H](c4cc(C(F)(F)F)cc(C(F)(F)F)c4)[C@@H]3C)CC(C)(C)CC2)c1 [Compound 308, methyl 3-(3-(2-(((4S,5R)-5-(3,5-bis(trifluoromethyl)phenyl)-4-methyl-2-oxooxazolidin-3-yl)methyl)-4,4-dimethylcyclohex-1-enyl)-4-methoxyphenyl)-3-methylbutanoate]
20 nM	COc1ccc(CC2(C(=O)O)CCC2)cc1C1=C(CN2C(=O)O[C@H](c3cc(C(F)(F)F)cc(C(F)(F)F)c3)[C@@H]2C)CC(C)(C)CC1 [Compound 313, 1-(3-(2-(((4S,5R)-5-(3,5-bis(trifluoromethyl)phenyl)-4-methyl-2-oxooxazolidin-3-yl)methyl)-4,4-dimethylcyclohex-1-enyl)-4-methoxybenzyl)cyclobutanecarboxylic acid]
30 nM	COc1ncc(C(F)(F)F)cc1C1=C(CN2C(=O)O[C@H](c3cc(C(F)(F)F)cc(C(F)(F)F)c3)[C@@H]2C)CC(C)(C)CC1 [Compound 316, (4S,5R)-5-(3,5-bis(trifluoromethyl)phenyl)-3-((2-(2-methoxy-5-(trifluoromethyl)pyridin-3-yl)-5,5-dimethylcyclohex-1-enyl)methyl)-4-methyloxazolidin-2-one]
54 nM	COC(=O)Cc1cc2c(c(C3=C(CN4C(=O)O[C@H](c5cc(C(F)(F)F)cc(C(F)(F)F)c5)[C@@H]4C)CC(C)(C)CC3)c1)OCO2 [Compound 317, methyl 2-(7-(2-(((4S,5R)-5-(3,5-bis(trifluoromethyl)phenyl)-4-methyl-2-oxooxazolidin-3-yl)methyl)-4,4-dimethylcyclohex-1-enyl)benzo[d][1,3]dioxol-5-yl)acetate]
104 nM	CNC(=O)C(C)(C)Cc1ccc(OC)c(C2=C(CN3C(=O)O[C@H](c4cc(C(F)(F)F)cc(C(F)(F)F)c4)[C@@H]3C)CC(C)(C)CC2)c1 [Compound 321, 3-(3-(2-(((4S,5R)-5-(3,5-bis(trifluoromethyl)phenyl)-4-methyl-2-oxooxazolidin-3-yl)methyl)-4,4-dimethylcyclohex-1-enyl)-4-methoxyphenyl)-N,2,2-trimethylpropanamide]
58 nM	COC(=O)C1(Cc2ccc(OC)c(C3=C(CN4C(=O)O[C@H](c5cc(C(F)(F)F)cc(C(F)(F)F)c5)[C@@H]4C)CC(C)(C)CC3)c2)CCCC1 [Compound 323, methyl 1-(3-(2-(((4S,5R)-5-(3,5-bis(trifluoromethyl)phenyl)-4-methyl-2-oxooxazolidin-3-yl)methyl)-4,4-dimethylcyclohex-1-enyl)-4-methoxybenzyl)cyclopentanecarboxylate]
97 nM	COc1ccc(CC2(C(=O)O)CCCC2)cc1C1=C(CN2C(=O)O[C@H](c3cc(C(F)(F)F)cc(C(F)(F)F)c3)[C@@H]2C)CC(C)(C)CC1 [Compound 324, 1-(3-(2-(((4S,5R)-5-(3,5-bis(trifluoromethyl)phenyl)-4-methyl-2-oxooxazolidin-3-yl)methyl)-4,4-dimethylcyclohex-1-enyl)-4-methoxybenzyl)cyclopentanecarboxylic acid]
9 nM	COc1cc(F)c(CC(C)(C)C(N)=O)cc1C1=C(CN2C(=O)O[C@H](c3cc(C(F)(F)F)cc(C(F)(F)F)c3)[C@@H]2C)CC(C)(C)CC1 [Compound 329, 3-(5-(2-(((4S,5R)-5-(3,5-bis(trifluoromethyl)phenyl)-4-methyl-2-oxooxazolidin-3-yl)methyl)-4,4-dimethylcyclohex-1-enyl)-2-fluoro-4-methoxyphenyl)-2,2-dimethylpropanamide]
35 nM	COc1ccc(-c2nnn(C)n2)cc1C1=C(CN2C(=O)O[C@H](c3cc(C(F)(F)F)cc(C(F)(F)F)c3)[C@@H]2C)CC(C)(C)CC1 [Compound 338, (4S,5R)-5-(3,5-bis(trifluoromethyl)phenyl)-3-((2-(2-methoxy-5-(2-methyl-2H-tetrazol-5-yl)phenyl)-5,5-dimethylcyclohex-1-enyl)methyl)-4-methyloxazolidin-2-one]
8 nM	COc1ccc(CC(C)(C)c2nn[nH]n2)cc1C1=C(CN2C(=O)O[C@H](c3cc(C(F)(F)F)cc(C(F)(F)F)c3)[C@@H]2C)CC(C)(C)CC1 [Compound 340, (4S,5R)-5-(3,5-bis(trifluoromethyl)phenyl)-3-((2-(2-methoxy-5-(2-methyl-2-(2H-tetrazol-5-yl)propyl)phenyl)-5,5-dimethylcyclohex-1-enyl)methyl)-4-methyloxazolidin-2-one]
13 nM	COc1ccc(CC(C)(C)c2nnn(C)n2)cc1C1=C(CN2C(=O)O[C@H](c3cc(C(F)(F)F)cc(C(F)(F)F)c3)[C@@H]2C)CC(C)(C)CC1 [Compound 341, (4S,5R)-5-(3,5-bis(trifluoromethyl)phenyl)-3-((2-(2-methoxy-5-(2-methyl-2-(2-methyl-2H-tetrazol-5-yl)propyl)phenyl)-5,5-dimethylcyclohex-1-enyl)methyl)-4-methyloxazolidin-2-one]
51 nM	COc1ncc(CC(C)(C)C(=O)O)cc1C1=C(CN2C(=O)O[C@H](c3cc(C(F)(F)F)cc(C(F)(F)F)c3)[C@@H]2C)CC(C)(C)CC1 [Compound 350, 3-(5-(2-(((4S,5R)-5-(3,5-bis(trifluoromethyl)phenyl)-4-methyl-2-oxooxazolidin-3-yl)methyl)-4,4-dimethylcyclohex-1-enyl)-6-methoxypyridin-3-yl)-2,2-dimethylpropanoic acid]
30 nM	COc1ccc(Cl)cc1C1=C(CN2C(=O)O[C@H](c3cc(C(F)(F)F)cc(C(F)(F)F)c3)[C@@H]2C)CC(C)(C)CC1 [Compound 353, (4S,5R)-5-(3,5-bis(trifluoromethyl)phenyl)-3-((2-(5-chloro-2-methoxyphenyl)-5,5-dimethylcyclohex-1-enyl)methyl)-4-methyloxazolidin-2-one]
6 nM	COc1ccc(C(C)C)nc1C1=C(CN2C(=O)O[C@H](c3cc(C(F)(F)F)cc(C(F)(F)F)c3)[C@@H]2C)CC(C)(C)CC1 [Compound 366, (4S,5R)-5-(3,5-bis(trifluoromethyl)phenyl)-3-((2-(6-isopropyl-3-methoxypyridin-2-yl)-5,5-dimethylcyclohex-1-enyl)methyl)-4-methyloxazolidin-2-one]
83 nM	COc1ccc(CN2CC[C@H](F)C2)cc1C1=C(CN2C(=O)O[C@H](c3cc(C(F)(F)F)cc(C(F)(F)F)c3)[C@@H]2C)CC(C)(C)CC1 [Compound 367, (4S,5R)-5-(3,5-bis(trifluoromethyl)phenyl)-3-((2-(5-(((S)-3-fluoropyrrolidin-1-yl)methyl)-2-methoxyphenyl)-5,5-dimethylcyclohex-1-enyl)methyl)-4-methyloxazolidin-2-one]

What follows are compounds tested on golden syrian hamsters (assay: Test for anti-hyperlipidemia activity in hamsters (blood HDL-c levels)). Settings: male golden syrian hamsters; 3 mg/kg orally for 5 days; serum HDL-cholesterol 4 hours after last administration; vs vehicle control.
Type: in vivo
Excerpt: […] Test for Anti-Hyderlipidemia Activity in Hamsters
1. Experimental animals As test animals, 8-week-old male golden syrian hamsters were purchased and used in the experimental. The animal facility was kept at constant temperature and constant humidity with a 12-hr dark/12-hr light cycle, and the animals were allowed to access food and water ad libitum.
2. Experimental for Anti-Hyperlipidemia Activity in Hamsters
The test animals were used in the test after an acclimation of 1 week. The test animals were divided according to body weight into several groups, each consisting of 5-8 animals. 3 mg/kg of each test compound (CETP inhibitor) was administered orally to the animals. Each test compounds was suspended in a solvent vehicle that is a solution of 5% ethanol, 10% solutol and 85% deionized water (DW), to be used. Each of test compounds suspended in a solvent vehicle was administered orally to the […] for 5 days. To the control group, a solvent vehicle itself was administered. And then, after 4 hours from the last administration, blood was collected through the cardiac puncture. The collected blood was centrifuged at 3000 rpm for 15 minutes, and the concentration of HDL-cholesterol (Biosystem) in the separated serum was measured using a biochemical analyzer (ILab 300 plus, Instrumentation Laboratory).
3. Statistical Processing
All the results were expressed as mean±SEM, and each test group and the control group were compared using one-way ANOVA test (Dunnett's test, p<0.001) in order to determine the effect of each test group.

SMILES	HDL-c Increase (%)
COc1cc(F)c(C(C)C)cc1C1=C(CN2C(=O)O[C@H](c3cc(C(F)(F)F)cc(C(F)(F)F)c3)[C@@H]2C)CC(C)(C)CC1 [Compound 19, (4S,5R)-5-(3,5-bis(trifluoromethyl)phenyl)-3-((2-(4-fluoro-5-isopropyl-2-methoxyphenyl)-5,5-dimethylcyclohex-1-enyl)methyl)-4-methyloxazolidin-2-one]	35%
COc1cc(F)c(C(C)C)cc1C1=C(CN2C(=O)O[C@H](c3cc(C(F)(F)F)cc(C(F)(F)F)c3)[C@@H]2C)CC(C)CC1 (stereo partly drawn) [Compound 25]	33%
COC(=O)c1ccc(OC)c(C2=C(CN3C(=O)O[C@H](c4cc(C(F)(F)F)cc(C(F)(F)F)c4)[C@@H]3C)CCCC2)c1 [Compound 36, methyl 3-(2-(((4S,5R)-5-(3,5-bis(trifluoromethyl)phenyl)-4-methyl-2-oxooxazolidin-3-yl)methyl)cyclohex-1-enyl)-4-methoxybenzoate]	11%
COc1ccc(N(C)C(=O)C(C)C)cc1C1=C(CN2C(=O)O[C@H](c3cc(C(F)(F)F)cc(C(F)(F)F)c3)[C@@H]2C)CC(C)(C)CC1 [Compound 113, N-(3-(2-(((4S,5R)-5-(3,5-bis(trifluoromethyl)phenyl)-4-methyl-2-oxooxazolidin-3-yl)methyl)-4,4-dimethylcyclohex-1-enyl)-4-methoxyphenyl)-N-methylisobutyramide]	17%
